Laboratory results taken from patent publication US20070059242A1, “METHODS TO IDENTIFY THERAPEUTIC AGENTS” (priority 2005, published 2007).
Like-named read-outs stand apart in the source and are kept apart here.

Key:
[1] = system: T-lymphocyte cell line (Jurkat E6.1); experiment: LDH release cytotoxicity assay, Jurkat; format: cell-based; details: Homo sapiens; Jurkat E6.1; LDH release, 0-100 μM, 18 h
Protocol: (§1) Cytotoxicity assays. WI-L2 human B-lymphocyte line, HAAE-1 human abdominal aortic endothelial line, MH-S murine alveolar macrophage line, and J774A.1 murine tissue macrophage line were obtained from the ATCC. Human aortic endothelial cells (HAEC) and human vascular smooth muscle cells (VSMS) were obtained from Cambrex Bio Science. Jurkat E6-1T-lymphocytes were kindly provided by Dr. J. Kaye (The Scripps Research Institute). Cells were cultured in ATCC-recommended media with 10% fetal calf serum. Cells were incubated in a controlled atmosphere at 37° C., with 5 or 7% CO2. For lactate dehydrogenase (LDH) release assays, adherent cells were harvested either by addition of 0.05% trypsin/EDTA or by scraping. The cells obtained were seeded onto 96-well microtiter plates (25,000 cells/well) and allowed to recover for 24-48 h. […] Cytotoxicity was then determined by measuring lactate dehydrogenase (LDH) release from cells in culture. […] 100% Cytotoxicity was defined as the maximum amount of LDH released by dead cells as shown by trypan blue exclusion, or the highest amount of LDH detected upon lysis of cells by 0.9% Triton X-100. The IC50 values were determined by comparison of the raw duplicate data for concentration versus cytotoxicity (%) to non-linear regression analysis (Hill plot) using Graphpad v3.0 software for Macintosh. […]

[2] = system: Human aortic endothelial cells (HAEC); experiment: LDH release cytotoxicity assay, HAEC; format: cell-based; details: Endothelial cell, 18 h
Protocol: as §1

J774A.1 macrophages = experiment: Modified Boyden chamber migration (chemotaxis) assay; format: cell-based, murine; details: for recruitment (migration) of macrophages: 0-25 μM, 4 h
Protocol: Chemotaxis and invasion assays were performed using a modified Boyden chamber migration assay. Zwirner et al. (1998) Eur. J. Immunol. 28: 1570-77; Wilkinson (1988) Methods Enzymol. 162: 38-50. Assays were set up on MultiScreen-MIC plates (Millipore, Billerica, Mass., USA) with polyvinylpyrrolidone-free polycarbonate membranes (5 μm pore size). Cells (murine macrophage J774A.1) were washed and resuspended in serum-free DMEM containing 0.2% BSA at 1×10^6 cells/ml. Fifty microliters of cells were added to the upper wells and 150 μl of chemoattractant in DMEM/0.2% BSA were added to the lower wells of the microchamber. Incubation time was for 4 h at 37° C. in an 8% CO2 atmosphere. After swiping cells off the upper side of the membrane, cells on the lower side were visualized by either staining and phase contrast microscopy, or fluorescence. Cells that had adhered to the membrane were stained using a DiffQuik staining kit (Dade Behring, Newark, Del.). Each experiment was performed in triplicate and the numbers of migrating cells were counted in five fields at ×200. Cells harvested with PBS-EDTA for fluorescent labeling were washed two times with PBS, then resuspended in serum-free medium containing calcein AM (5 μM). Cells were incubated for 30 min (37° C., 5% CO2) with gentle intermittent mixing. Calcein-labeled cells were washed twice, and calcein fluorescence ([…]) was measured using a SPECTRAmax™ GEMINI dual-scanning microplate spectrofluorometer. Fluorescence measurements were compared to a standard curve, generated by dilution of cells in PBS/BSA in 100 μl, dispensed into 96-well plates. Fluorescence was quantified as described above.

E-selectin = experiment: Endothelial adhesion molecule expression ELISA, E-selectin; format: cell-based, human; details: for upregulation of E-selectin expression relative to vehicle control: HAAE-1, 4 h, 25 μM in the presence of LDL (100 μg/mL protein), or lipoprotein alone; for selectin (E-selectin) expression: HAAE-1, not complexed with LDL
Protocol: Endothelial cell surface adhesion molecule expression was measured by ELISA, using anti-human CD54 (ICAM-1), CD106 (VCAM-1) and CD62E (E-Selectin) antibodies (Leinco Technologies, Inc., St. Louis, Mo.). The ELISA method was modified from previously described procedures.
Cells were then incubated with antibodies to VCAM-1, E-selectin, or ICAM-1 diluted 1:400 in PBS containing 5% FCS at 37° C. for 30 min. Wells were washed two times with PBS, then incubated with horseradish peroxidase (HRP)-conjugated goat anti-mouse IgG (Southern Biotechnology Associates, Birmingham, Ala., USA) in PBS/5% FCS at 37° C. for 30 min. The wells were washed four times with PBS, then incubated with H2O2/3,3′,5,5′-tetramethyl-benzidine peroxidase substrate (Pierce Chemical, Rockford, Ill., USA) for 30 min in the dark. The reaction was stopped by adding 25 μl of 8 N H2SO4, and the plates read on a microplate reader, blanking on wells stained with only secondary antibody. Each assay was performed in triplicate and the data are reported as the mean±SEM as a percentage of the expression level of the vehicle. To study the effect of cholesterol ozonation product 5a concentration (5-50 μM) on E-selectin expression, the assay was performed in an identical fashion as described above, with each point being the mean±SEM of at least duplicate measurements.

[3] = Aldolization of 4a with atherosclerotic artery and blood fractions (1H NMR); format: in vitro ADME, human
Protocol: Aldolization of secoketoaldehyde 4a with atherosclerotic artery and blood fractions. […] To this solution was added either a) atherosclerotic artery (2.1 mg) that had been homogenized in PBS (1 ml) in a tissue homogenizer and then lyophilized to dryness, b) lyophilized human blood (1 ml), c) lyophilized human plasma (1 ml) or d) PBS lyophilized (1 ml). At time points samples were removed and analyzed by ^1H NMR vide supra.

[4] = complexed with native LDL (100 μg/ml)

SMILES	IC50 [1] [µM]	IC50 [2] [µM]	recruitment (migration) of macrophages (J774A.1 macrophages)	migration of macrophages (J774A.1 macrophages; co-incubated with BSA)	migration of macrophages (J774A.1 macrophages; [4])	upregulation of E-selectin expression relative to vehicle control (E-selectin)	selectin (E-selectin) expression (E-selectin)	IC50 ([2]; HAEC, LDH release, 0-100 μM, read-out: IC50) [µM]	E-selectin levels (E-selectin; HAAE-1, 1.25 μM complexed with LDL) [fold]	E-selectin levels (E-selectin; HAAE-1, 50 μM complexed with LDL)	conversion of 4a into 5a ([3]; extracts from atheromatous arteries, 22 h)	aldolization of 4a ([3]; lyophilized PBS)	conversion of 4a into 5a ([3]; plasma, 15 h)	conversion of 4a into 5a ([3]; serum, 15 h)	conversion of 4a into 5a ([3]; whole blood, 15 h)
CC(C)CCC[C@@H](C)[C@H]1CCC2C3C(CC[C@@]21C)[C@@]1(C)CC[C@H](O)C[C@@]1(O)[C@@H]3C=O (stereo partly drawn) [5a, 3β-Hydroxy-5β-hydroxy-B-norcholestane-6β-carboxaldehyde]	12.6 ± 1.9	18.2 ± 1.9	stimulate dose-dependent recruitment of macrophages	macrophage migration still occurs	no significant migration	1.8 fold	no effects	–	–	–	–	–	–	–	–
CC(C)CCC[C@@H](C)[C@H]1CCC2C(CC=O)C([C@@]3(C)CC[C@H](O)CC3=O)CC[C@@]21C (stereo partly drawn) [4a, 3β-Hydroxy-5-oxo-5,6-secocholestan-6-al]	–	–	stimulate dose-dependent recruitment of macrophages	macrophage migration still occurs	no significant migration	greater than 4 fold	no effects	24.6 ± 3.2	2	about 8 fold	complete conversion	no aldolization	complete conversion	complete conversion	complete conversion
